According to patent publication US20240391882A1 (Mirati Therapeutics, Inc., priority 2023, published 2024):
Read-outs that look alike come from different tables or passages of the source.

Columns and labels:
Assay type in all cases: cell-based
[1] = system: T47D (PI3Kα H1047R mutant) cells; assay: Cell viability (CellTiter-Glo 2.0) in T47D cells; conditions: Homo sapiens, approximately 72 hours
Procedure, shortened: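 SKBR3 or T47D cells, 1000 per well, were seeded overnight and then exposed ~72 h at 37° C to 10 concentrations of compound, 1:4 dilutions from 10 μm. Viability read by CellTiter-Glo luminescence as percent of vehicle; IC50 from four-parameter variable-slope fit.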

[2] = system: pAKT in T47D (PI3Kα H1047R mutant) cells; assay: Inhibition of pAKT (alphaLISA Surefire Ultra AKT 1/2/3 pS473) in T47D cells; conditions: Homo sapiens, read-out: T47D (H1047R) pAKT 24 hr (IC50)
Procedure, shortened: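 Cells in HBSS were dosed from 10.4 μm (1:4 serial dilution, 10 concentrations) and incubated about 24 hours at 37° C, then lysed. pAKT S473 measured by alphaLISA after overnight bead incubation. Signal normalised to alpelisib (3.125 μm) and DMSO controls; IC50 from four-parameter fit.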

[3] = system: SKBR3 (PI3Kα wild type) cells; assay: Cell viability (CellTiter-Glo 2.0) in SKBR3 cells; conditions: Homo sapiens
Protocol: This Example illustrates that representative compounds of the invention decrease the viability of cells.
The ability of a compound of Formula (I) to decrease the viability of cells was measured using CellTiter-Glo 2.0 (CTG) Luminescent Cell Viability Assay (#G9241) obtained from Promega (Madison, WI).
To prepare assay plates for viability assays, cells were trypsinized, resuspended in fresh media, and viable cells were counted utilizing trypan blue exclusion. T47D, SKBR3, or MKN1 cells were seeded at 1000 cells in 30 μl per well in a solid white flat bottom 384 cell culture plate (Perkin Elmer #6007680) and incubated at 37° C. overnight.
Assay day 1, cells were dosed using an Echo Liquid Handler (Beckman Coulter) with compounds at a 10 μm starting concentration and serially diluted (1:4) for a total of 10 concentrations. Cells were incubated for approximately 72 hours with the compounds (solubilized in DMSO) at 37° C. After 72 hours of treatment, cell plates were equilibrated to room temperature before adding 15 μl of CTG to each well, plates were then covered in aluminum foil to protect from light, incubated at room temperature for 30 minutes on a microtiter plate shaker, and luminescence readings were collected using a CLARIOstar microplate reader (BMG Labtech, Germany). Percent of vehicle control values were plotted as log(inhibitor) vs. response—Variable slope (four parameters) for curve fitting and IC50 values were determined using XLfit.

[4] = SK-BR-3, 72 h, read-out: SKBR3 (WT) Viability IC50 (nM)
[5] = T47D (PI3Kα H1047R mutant) cells, 24 hr compound incubation, alphaLISA pS473
[6] = SK-BR-3, SKBR3 (PI3Kα wild type) cells, approximately 72 hours, CellTiter-Glo 2.0, read-out: SKBR3 (WT) Viability IC50

Structure (SMILES) | IC50 ([1]; T47D, 72 h) | IC50 [2, 5] | IC50 [3, 6] | IC50 [1] | IC50 ([2]; T47D, 24 h) | IC50 [3, 4]
Cc1cc([C@@H](C)Nc2ccccc2C(=O)O)c2nc(N3Cc4ccccc4C3)c(C#N)nc2c1 [Example 6, (R)-2-((1-(2-cyano-3-(isoindolin-2-yl)-7-methylquinoxalin-5-yl)ethyl)amino)benzoic acid] | – | – | – | 294 nM | 5 nM | > 10000 nM
Cc1cc([C@@H](C)Nc2ccc(Cl)nc2C(=O)O)c2nc(N3CCC4(COC4)C3)c(C#N)nc2c1 [Example 240, (R)-6-chloro-3-((1-(2-cyano-7-methyl-3-(2-oxa-6-azaspiro[3.4]octan-6-yl)quinoxalin-5-yl)ethyl)amino)picolinic acid] | 16 nM | 1.6 nM | 7990 nM | – | – | –
Cc1cc([C@@H](C)Nc2ccc(Cl)nc2C(=O)O)c2nc(N3CC4(CCC4(F)F)C3)c(C#N)nc2c1 [Example 256, (R)-6-chloro-3-((1-(2-cyano-3-(5,5-difluoro-2-azaspiro[3.3]heptan-2-yl)-7-methylquinoxalin-5-yl)ethyl)amino)picolinic acid] | 310 nM | 0.11 nM | > 10000 nM | – | – | –
Cc1cc([C@@H](C)Nc2ccc(Cl)nc2C(=O)O)c2nc(N3CCCC3)c(C#N)nc2c1 [Example 69, (R)-6-chloro-3-((1-(2-cyano-7-methyl-3-(pyrrolidin-1-yl)quinoxalin-5-yl)ethyl)amino)picolinic acid] | 50.2 nM | 2.1 nM | 9650 nM | – | – | –
Cc1cc([C@@H](C)Nc2ccc(Cl)nc2C(=O)O)c2nc(N3CCC(C)(C)CC3)c(C#N)nc2c1 [Example 62, (R)-6-chloro-3-((1-(2-cyano-3-(4,4-dimethylpiperidin-1-yl)-7-methylquinoxalin-5-yl)ethyl)amino)picolinic acid] | 220 nM | 7.9 nM | 7080 nM | – | – | –
Cc1cc([C@@H](C)Nc2ccc(Cl)nc2C(=O)O)c2nc(N3C[C@H]4C[C@@H]3CC4(F)F)c(C#N)nc2c1 (single isomer, unassigned) [Example 9] | 65.1 nM | 7.5 nM | 3400 nM | – | – | –
C[C@@H](Nc1ccccc1C(=O)O)c1cc(C2CC2)cc2nc(C#N)c(N3CCC(F)(F)CC3)nc12 [Example 37, (R)-2-((1-(2-cyano-7-cyclopropyl-3-(4,4-difluoropiperidin-1-yl)quinoxalin-5-yl)ethyl)amino)benzoic acid] | 588 nM | 94.6 nM | > 10000 nM | – | – | –
Cc1cc([C@@H](C)Nc2ccc(Cl)nc2C(=O)O)c2nc(N3CC4(CCCO4)C3)c(C#N)nc2c1 [Example 252, (R)-6-chloro-3-((1-(2-cyano-7-methyl-3-(5-oxa-2-azaspiro[3.4]octan-2-yl)quinoxalin-5-yl)ethyl)amino)picolinic acidS] | 119 nM | 2.7 nM | 5260 nM | – | – | –
C[C@@H](Nc1ccc(Cl)nc1C(=O)O)c1cc(C2CC2)cc2nc(C#N)c(N3CCC(F)(F)CC3)nc12 [Example 33, (R)-6-chloro-3-((1-(2-cyano-7-cyclopropyl-3-(4,4-difluoropiperidin-1-yl)quinoxalin-5-yl)ethyl)amino)picolinic acid] | 91.4 nM | 4.3 nM | 7430 nM | – | – | –
Cc1cc([C@@H](C)Nc2ccc(Cl)nc2C(=O)O)c2nc(N3CCC(F)(F)CC3)c(C#N)nc2c1 [Example 5, (R)-6-chloro-3-((1-(2-cyano-3-(4,4-difluoropiperidin-1-yl)-7-methylquinoxalin-5-yl)ethyl)amino)picolinic acid] | – | – | – | 37.3 nM | 0.8 nM | 3970 nM
Cc1cc([C@@H](C)Nc2ccccc2C(=O)O)c2nc(N3CCC(F)(F)CC3)c(C#N)nc2c1 [Example 3, (R)-2-((1-(2-cyano-3-(4,4-difluoropiperidin-1-yl)-7-methylquinoxalin-5-yl)ethyl)amino)benzoate] | 170 nM | 9.5 nM | > 10000 nM | – | – | –
Cc1cc([C@@H](C)Nc2ccc(Cl)nc2C(=O)O)c2nc(N3CC(C)(C)C3)c(C#N)nc2c1 [Example 56, (R)-6-chloro-3-((1-(2-cyano-3-(3,3-dimethylazetidin-1-yl)-7-methylquinoxalin-5-yl)ethyl)amino)picolinic acid] | 128 nM | 4.7 nM | > 10000 nM | – | – | –
Cc1cc([C@@H](C)Nc2ccc(Cl)nc2C(=O)O)c2nc(N3CCc4ccccc4C3)c(C#N)nc2c1 [Example 83, (R)-6-chloro-3-((1-(2-cyano-3-(3,4-dihydroisoquinolin-2(1H)-yl)-7-methylquinoxalin-5-yl)ethyl)amino)picolinic acid] | 60.7 nM | – | > 10000 nM | – | – | –
Cc1cc([C@@H](C)Nc2scnc2C(=O)O)c2nc(N3CCC(F)(F)CC3)c(C#N)nc2c1 [Example 39, (R)-5-((1-(2-cyano-3-(4,4-difluoropiperidin-1-yl)-7-methylquinoxalin-5-yl)ethyl)amino)thiazole-4-carboxylic acid] | 2680 nM | – | 6230 nM | – | – | –
Cc1cc([C@@H](C)Nc2ccc(Cl)nc2C(=O)O)c2nc(N3CCCC(F)(F)C3)c(C#N)nc2c1 [Example 12, (R)-6-chloro-3-((1-(2-cyano-3-(3,3-difluoropiperidin-1-yl)-7-methylquinoxalin-5-yl)ethyl)amino)picolinic acid] | 160 nM | – | > 10000 nM | – | – | –
Cc1cc([C@@H](C)Nc2ccccc2C(=O)O)c2nc(N3CCc4ccccc4C3)c(C#N)nc2c1 [Example 84, (R)-2-((1-(2-cyano-3-(3,4-dihydroisoquinolin-2(1H)-yl)-7-methylquinoxalin-5-yl)ethyl)amino)benzoic acid] | 343 nM | – | > 10000 nM | – | – | –
Cc1cc([C@@H](C)Nc2ccc(Cl)nc2C(=O)O)c2nc(N3CCC(F)(F)[C@@H](C)C3)c(C#N)nc2c1 [Example 78B, 6-chloro-3-(((R)-1-(2-cyano-3-((S)-4,4-difluoro-3-methylpiperidin-1-yl)-7-methylquinoxalin-5-yl)ethyl)amino)picolinic acid] | 84.4 nM | – | > 10000 nM | – | – | –
Cc1cc([C@@H](C)Nc2ccccc2-c2nnn[nH]2)c2nc(N3CCOCC3)c(C#N)nc2c1 [Example 852, (R)-5-(1-((2-(1H-tetrazol-5-yl)phenyl)amino)ethyl)-7-methyl-3-morpholinoquinoxaline-2-carbonitrile] | 1440 nM | – | > 10000 nM | – | – | –

More lines, main results first:

IC50 ([1]; T47D, 72 h) | IC50 [2, 5] | IC50 [3, 6] | Structure (SMILES) | IC50 [1] | IC50 ([2]; T47D, 24 h) | IC50 [3, 4]
35 nM | 0.69 nM | > 10000 nM | Cc1cc([C@@H](C)Nc2ccc(Cl)nc2C(=O)O)c2nc(N3C[C@@H](F)C[C@H]3C)c(C#N)nc2c1 [Example 246A, 6-chloro-3-(((R)-1-(2-cyano-3-((2R,4S)-4-fluoro-2-methylpyrrolidin-1-yl)-7-methylquinoxalin-5-yl)ethyl)amino)picolinic acid] | – | – | –
158 nM | 6.8 nM | 6220 nM | Cc1cc([C@@H](C)Nc2ccc(Cl)nc2C(=O)O)c2nc(N3C[C@@H](F)C[C@@H]3C)c(C#N)nc2c1 [Example 246D, 6-chloro-3-(((R)-1-(2-cyano-3-((2S,4S)-4-fluoro-2-methylpyrrolidin-1-yl)-7-methylquinoxalin-5-yl)ethyl)amino)picolinic acid] | – | – | –
262 nM | 1.8 nM | > 10000 nM | Cc1cc([C@@H](C)Nc2ccc(Cl)nc2C(=O)O)c2nc(N3CCO[C@@H](CO)C3)c(C#N)nc2c1 [Example 235B, 6-chloro-3-(((R)-1-(2-cyano-3-((R)-2-(hydroxymethyl)morpholino)-7-methylquinoxalin-5-yl)ethyl)amino)picolinic acid] | – | – | –
39 nM | 1 nM | > 10000 nM | Cc1cc([C@@H](C)Nc2ccc(Cl)nc2C(=O)O)c2nc(N3CCO[C@@H]4C[C@@H]43)c(C#N)nc2c1 (single isomer, unassigned) [Example 239A] | – | – | –
78 nM | 5.7 nM | 6900 nM | COC[C@@H]1CN(c2nc3c([C@@H](C)Nc4ccc(Cl)nc4C(=O)O)cc(C)cc3nc2C#N)CC1(F)F (single isomer, unassigned) [Example 211A] | – | – | –
89 nM | 1.3 nM | > 10000 nM | Cc1cc([C@@H](C)Nc2ccc(Cl)nc2C(=O)O)c2nc(N3CC4CCC4(F)C3)c(C#N)nc2c1 (single isomer, unassigned) [Example 244B] | – | – | –
